Experiment in all cases: Growth inhibition assay
For test [1], the system named is F. nucleatum subsp. nucleatum ATCC 25586 (FNN25). The format is cell-based, Fusobacterium nucleatum subsp. nucleatum ATCC 25586. To be noted: 10 µM, MHB, 1 × 10^5 CFU/mL input, three replicates. The text has this: (§1) The following fusobacterial strains were used in this study: Fusobacterium nucleatum subsp. nucleatum ATCC 23726 (FNN23) acquired from the American Type Culture Collection (ATCC), F. nucleatum subsp. nucleatum ATCC 25586 (FNN25), F. nucleatum subsp. vincentii ATCC 49256 (FNV), and F. nucleatum subsp. polymorphum ATCC 10953 (FNP) acquired from the German Collection of Microorganisms and Cell Culture (DSMZ), F. nucleatum subsp. animalis 7_1 (FNA) and F. periodonticum 2_1_31 (FPE) both received as a kind gift from E. Allen-Vercoe (University of Guelph, Canada). All strains were routinely grown at 37°C in 80:10:10 (N2:H2:CO2) anaerobic conditions on 2% agar supplemented BHI plates (BHI, 1% [wt:vol] dried yeast extract, 1% [vol:vol] 50% sterile-filtered glucose solution, 5 µg/mL of hemin; 1% [vol:vol] fetal bovine serum) from frozen 20% glycerol stocks kept at −80°C. For liquid growth, the strains were cultured in Columbia broth (ColB; BD Difco). Precultures were prepared 24 h before inoculating the working culture at a 1:50 dilution in fresh ColB until OD600 0.5 was reached. Cultures were then diluted in non-cation adjusted Mueller-Hinton Broth (MHB, BD Difco) to the desired CFU/mL number. P. gingivalis (DSM 20709) was purchased from DSMZ and grown at 37°C in anaerobic conditions as mentioned above on 2% agar supplemented BHI+ plates (BHI, 1% [wt:vol] dried yeast extract, 1% [vol:vol] 50% sterile filtered glucose solution, 5 µg/ml of hemin; 10% [vol:vol] fetal bovine serum; and 1 µg/mL vitamin K3) for 4 days. […]
(§2) To determine the MIC value, broth microdilutions were performed according to the standard protocol with some modifications ([119]). […] Bacterial growth was monitored by measuring OD600 every 20 min with constant shaking in a plate reader (Biotek) under the normal atmospheric environment or positioned in the anaerobic chamber with double orbital shaking every 20 min prior to each measurement with 237 cpm at 37°C for 120 h.

The subject of test [2] is F. nucleatum subsp. animalis 7_1 (FNA). In kind it is cell-based, Fusobacterium nucleatum subsp. animalis 7_1. To be noted: 10 µM, MHB, 1 × 10^5 CFU/mL input, three replicates.
Description: as §1, §2

The test system of test [3] is F. nucleatum subsp. vincentii ATCC 49256 (FNV). The format is cell-based, Fusobacterium nucleatum subsp. vincentii ATCC 49256. To be noted: 10 µM, MHB, 1 × 10^5 CFU/mL input, three replicates.
Description: (§3) The following fusobacterial strains were used in this study: Fusobacterium nucleatum subsp. nucleatum ATCC 23726 (FNN23) acquired from the American Type Culture Collection (ATCC), F. nucleatum subsp. nucleatum ATCC 25586 (FNN25), F. nucleatum subsp. vincentii ATCC 49256 (FNV), and F. nucleatum subsp. polymorphum ATCC 10953 (FNP) acquired from the German Collection of Microorganisms and Cell Culture (DSMZ), F. nucleatum subsp. animalis 7_1 (FNA) and F. periodonticum 2_1_31 (FPE) both received as a kind gift from E. Allen-Vercoe (University of Guelph, Canada). All strains were routinely grown at 37°C in 80:10:10 (N2:H2:CO2) anaerobic conditions on 2% agar supplemented BHI plates (BHI, 1% [wt:vol] dried yeast extract, 1% [vol:vol] 50% sterile-filtered glucose solution, 5 µg/mL of hemin; 1% [vol:vol] fetal bovine serum) from frozen 20% glycerol stocks kept at −80°C. For liquid growth, the strains were cultured in Columbia broth (ColB; BD Difco). […]
as §2

Test [4] deals with F. periodonticum 2_1_31 (FPE). In kind it is cell-based, Fusobacterium periodonticum 2_1_31. The note with it: 10 µM, MHB, 1 × 10^5 CFU/mL input, three replicates.
Description: as §1, §2

In test [5] the test system is P. gingivalis (DSM 20709). In kind it is cell-based, Porphyromonas gingivalis. The note with it: 10 µM, MHB, 1 × 10^5 CFU/mL input, anaerobic, OD600 for 144 h.
Description: as §3, with “Difco). Precultures were prepared 24 h before inoculating the working culture at a 1:50 dilution in fresh ColB until OD600 0.5 was reached.” for “Difco).”
To determine the MIC value, broth microdilutions were performed according to the standard protocol with some modifications ([119]). […] […] a plate reader (Biotek) under the normal atmospheric environment or positioned in the anaerobic chamber with double orbital […]

The subject of another test is E. coli K12 MG1655. The format is cell-based, Escherichia coli K12. To be noted: 10 µM, MHB, 1 × 10^5 CFU/mL input, aerobic, 24 h. The method, then: (§4) Aerobic bacterial culture was conducted with E. coli K12 MG1655 (provided by D. Lee), E. coli Nissle 1917, and S. enterica serovar Typhimurium SL1344 (provided by D. Bumann, Biocenter Basel, Switzerland). The strains were streaked on lysogeny broth plates, incubated o.n. at 37°C and cultured in non-cation-adjusted MHB with aeration at 37°C and 220 rpm constant shaking.
(§5) To determine the MIC value, broth microdilutions were performed according to the standard protocol with some modifications ([119]). An overnight bacterial culture was diluted in a fresh ColB medium and grown to OD600 0.5 (mid-exponential phase). Fusobacteria were then diluted 1:2,500 or 1:250 in fresh MHB to obtain 1 × 10^5 CFU/mL or 1 × 10^6 CFU/mL as indicated. To determine the growth inhibition of P. gingivalis, an o.n. culture grown in BHI+ was diluted 1:1,500 in MHB to obtain 1 × 10^5 CFU/mL. E. coli K12, E. coli Nissle 1917, and S. enterica o.n. cultures grown in MHB were diluted 1:1,800 in fresh MHB to obtain 1 × 10^5 CFU/mL. […] Bacterial growth was monitored by measuring OD600 every 20 min with constant shaking in a plate reader (Biotek) under the normal atmospheric environment or positioned in the anaerobic chamber with double orbital shaking every 20 min prior to each measurement with 237 cpm at 37°C for 120 h.

Another test deals with E. coli Nissle 1917. The format is cell-based, Escherichia coli Nissle 1917. To be noted: 10 µM, MHB, 1 × 10^5 CFU/mL input, aerobic, 24 h. The method, then: as §4, §5

For the substance “(RXR)4XB-GACATAATTGT [FUS79, non-targeting (RXR)4XB-PNA 11-mer control, (RXR)4XB-…]”, the “Growth inhibition of FNN25” value in test [1] is given as “inhibited the growth”. In test [2], the “Growth inhibition of FNA” value is “inhibited the growth”. In test [3], the “Growth inhibition of FNV” value is “inhibited the growth of all strains, except FNV”. The “Growth inhibition of FPE” value in test [4] is listed as “inhibited the growth”. In addition, the “Growth inhibition of P. gingivalis” value in test [5] is reported as “no growth inhibition”. For the same substance, the “Growth inhibition of E. coli K12” value with E. coli K12 MG1655 is given as “no growth inhibition”. Further, in the test with E. coli Nissle 1917, the “Growth inhibition of E. coli Nissle 1917” value is listed as “no growth inhibition”.

For the substance RXRRXRRXRRXRXB [PNAscr], the “Growth inhibition of FNN25” value in test [1] is reported as “growth retardation compared with the water control”. Moreover, the “Growth inhibition of FNA” value in test [2] is “growth retardation compared with the water control”. Moreover, the “Growth inhibition of FNV” value in test [3] is “growth retardation compared with the water control”. In addition, in test [4], the “Growth inhibition of FPE” value is reported as “growth retardation compared with the water control”. Also, in test [5], the “Growth inhibition of P. gingivalis” value is given as “no growth inhibition”. For the same substance, in the test on E. coli K12 MG1655, the “Growth inhibition of E. coli K12” value is “no growth inhibition”. For the same substance, the “Growth inhibition of E. coli Nissle 1917” value with E. coli Nissle 1917 was “no growth inhibition”.
